According to article PMC6503537, “Synthesis of HDAC Substrate Peptidomimetic Inhibitors Using Fmoc Amino Acids Incorporating Zinc-Binding Groups” (Organic Letters, 2019):
Starred links: 1 amine or outer side, 2 acyl side, 3 side chain; linkers in the order of their positions; H or OH if unused. Non-standard residues stand in square brackets, D forms with d. Residues, ends and D or L forms follow the SMILES beside them. *: point of attachment. X1 = CCC(=O)CCCCC[C@H](N[*:1])C(=O)[*:2]; Asu = N[C@@H](CCCCCC(=O)O)C(=O)O; NHOH = ON*

Tests used:
[1] = tested on: various HDACs; set-up: method as in PMID 25738536; conditions: FDA approved HDAC inhibitors; cited from earlier work
[2] = target: HDAC1-MTA1-RBBP4 (Homo sapiens, UniProt Q09028+Q13330+Q13547); test: Fluorescence-based HDAC inhibition assay (BOC-Lys-AMC substrate); assay type: biochemical; conditions: 50 nM HDAC1-MTA1-RBBP4, 30 min at 37 °C
Method: SPIs 11–14 were assessed in a fluorescence-based inhibition assay to determine potency as HDAC inhibitors (Table 2). […] The lower activity of SPIs 12–13 can be attributed to the lower zinc binding affinity of ketones. In the future these amino acids will be incorporated in various histone tails to generate a library to identify important binding interactions through additional crystal structure studies. The cell permeability of these peptides will also be investigated to determine their usefulness as cellular probes.
HDAC activity was measured by using fluorescent BOC-Lys-AMC substrate in a black 96-well format. 50 nM HDAC1-MTA1-RBBP4 was incubated with inhibitor and 100 µM BOC-Lys-AMC substrate for 30 min at 37 °C in a final volume of 50 µl (50 mM Tris pH 7.5, 150 mM NaCl, 5% Glycerol). The assay was developed by the addition of 50 µl of developer solution (2 µM TSA, 10 mg ml -1 Trypsin, 50 mM Tris pH 7.5, 100 mM NaCl). Fluorescence was measured at 335/460 nm using a Victor X5 plate reader (Perkin Elmer). All measurements were performed in triplicate and data analysed using GraphPad Prism (version 7.0, GraphPad Software, Inc). In the case of titrations IC50 values were calculated by nonlinear curve fitting with a one-site binding (hyperbola) model (Y=Bmax*X/(Kd+X).
Sequence Yield Purity IC50 Retention time Peptide content
(1 picture or pasted object on this page, not shown here)

[3] = tested on: class I HDAC; conditions: cited from earlier work
Source text: These inhibitors function by coordinating with the HDAC active site zinc through a side chain that has zinc binding properties such as a hydroxamic acid or ethyl ketone.

Sequence of HDAC1-MTA1-RBBP4 (Q13547 whole entry): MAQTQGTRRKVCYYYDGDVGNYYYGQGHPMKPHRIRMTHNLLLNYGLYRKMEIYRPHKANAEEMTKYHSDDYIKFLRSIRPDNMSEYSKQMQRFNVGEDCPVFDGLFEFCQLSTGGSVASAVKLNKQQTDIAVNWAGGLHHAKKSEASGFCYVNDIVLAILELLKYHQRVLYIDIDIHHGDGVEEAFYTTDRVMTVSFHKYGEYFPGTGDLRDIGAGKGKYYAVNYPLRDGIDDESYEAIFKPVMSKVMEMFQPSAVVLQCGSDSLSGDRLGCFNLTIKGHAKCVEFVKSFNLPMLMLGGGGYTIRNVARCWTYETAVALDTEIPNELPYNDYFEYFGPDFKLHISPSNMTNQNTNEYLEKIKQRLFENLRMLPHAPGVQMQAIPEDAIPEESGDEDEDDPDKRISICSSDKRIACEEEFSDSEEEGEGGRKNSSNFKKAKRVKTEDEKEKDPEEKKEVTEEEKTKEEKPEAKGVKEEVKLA
Sequence of HDAC1-MTA1-RBBP4 (Q13330 whole entry partner): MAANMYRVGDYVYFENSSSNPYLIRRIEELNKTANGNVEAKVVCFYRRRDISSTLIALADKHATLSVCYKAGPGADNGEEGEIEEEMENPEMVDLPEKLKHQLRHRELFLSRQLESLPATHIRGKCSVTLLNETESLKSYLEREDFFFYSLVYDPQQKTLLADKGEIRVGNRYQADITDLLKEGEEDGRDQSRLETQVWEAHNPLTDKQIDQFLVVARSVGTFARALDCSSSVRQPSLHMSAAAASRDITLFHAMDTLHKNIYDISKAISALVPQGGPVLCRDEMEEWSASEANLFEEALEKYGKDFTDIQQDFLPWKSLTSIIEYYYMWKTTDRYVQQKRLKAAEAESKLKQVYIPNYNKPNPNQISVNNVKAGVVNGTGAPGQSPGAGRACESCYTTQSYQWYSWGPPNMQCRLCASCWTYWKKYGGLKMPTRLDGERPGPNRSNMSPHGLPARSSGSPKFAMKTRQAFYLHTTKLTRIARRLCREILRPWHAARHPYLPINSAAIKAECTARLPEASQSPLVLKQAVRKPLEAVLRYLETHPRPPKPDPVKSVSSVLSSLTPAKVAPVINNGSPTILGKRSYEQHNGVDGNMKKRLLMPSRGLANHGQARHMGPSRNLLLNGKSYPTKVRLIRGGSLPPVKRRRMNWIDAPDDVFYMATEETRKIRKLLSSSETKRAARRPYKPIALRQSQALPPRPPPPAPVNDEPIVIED
Sequence of HDAC1-MTA1-RBBP4 (Q09028 whole entry partner): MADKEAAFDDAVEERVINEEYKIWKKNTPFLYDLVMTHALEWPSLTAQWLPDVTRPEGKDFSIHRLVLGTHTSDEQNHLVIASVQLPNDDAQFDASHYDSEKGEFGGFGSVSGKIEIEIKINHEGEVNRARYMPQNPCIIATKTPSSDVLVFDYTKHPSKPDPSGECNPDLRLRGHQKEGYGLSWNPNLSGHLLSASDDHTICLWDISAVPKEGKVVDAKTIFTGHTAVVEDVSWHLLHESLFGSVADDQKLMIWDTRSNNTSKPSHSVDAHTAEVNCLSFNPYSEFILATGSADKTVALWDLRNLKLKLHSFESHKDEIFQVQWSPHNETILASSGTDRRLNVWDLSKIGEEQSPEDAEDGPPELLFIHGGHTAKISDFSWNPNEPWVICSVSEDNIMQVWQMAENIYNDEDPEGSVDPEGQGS

## O=C(/C=C/c1cccc(S(=O)(=O)Nc2ccccc2)c1)NO [Belinostat]
[1]
  HDAC specificity, result in words: nonspecific across various HDACs

## Cc1[nH]c2ccccc2c1CCNCc1ccc(/C=C/C(=O)NO)cc1 [Panobinostat]
[1]
  HDAC specificity, result in words: nonspecific across various HDACs

## CC(=O)N[C@@H](CCCCN)C(=O)N[C@@H](C)C(=O)N[C@@H](C)C(=O)N[C@@H](CCCNC(=N)N)C(=O)N[C@@H](CCCCCC(=O)NO)C(=O)N[C@@H](CO)C(=O)N[C@@H](C)C(N)=O [SPI 11] (Ac-KAAR[Asu](NHOH)SA-NH2)
[2]; BOC-Lys-AMC substrate, pH 7.5, tested concentration not given
  HDAC inhibition, result in words: comparable to our previously reported SPI based on the H4 peptide sequence

## CCC(=O)CCCCC[C@H](NC(=O)[C@H](CCCNC(=N)N)NC(=O)[C@H](C)NC(=O)[C@H](C)NC(=O)[C@H](CCCCN)NC(C)=O)C(=O)N[C@@H](CO)C(=O)N[C@@H](C)C(N)=O [SPI 12] (Ac-KAAR[X1]SA-NH2)
[2]; 100 M BOC-Lys-AMC substrate (so in the source), 50 mM Tris pH 7.5, 150 mM NaCl, 5% Glycerol, developer TSA/Trypsin, fluorescence 335/460 nm, triplicate, one-site binding fit, unit printed µM in SI
  IC50: 17 µM

## O=C(CCCCCCC(=O)Nc1ccccc1)NO [Vorinostat]
[1]
  HDAC specificity, result in words: nonspecific across various HDACs

## Apicidin A
[3]
  HDAC inhibition, result in words: class I selective HDAC inhibition in the nanomolar range

## Romidepsin
[1]
  HDAC specificity, result in words: nonspecific across various HDACs
